Results: patent US6905839B2, “In vivo phenotyping for human cytochrome P450 3A activity” (priority 2002, dated 2005)

Key:
[1] = system: CYP3A; conditions: pretreatment with 500-mg of clarithromycin twice a day for 7 days; cited from earlier work
[2] = system: CYP3A; conditions: male, human, in vivo
Method: The subject was not receiving any medication. […] Urine samples were obtained at a timed period (0-2, 2-4, 4-6, 6-8, 8-10, and 10-12) and the volume of the urine samples was noted. The recommended frequency of blood sampling is at least one time during a 2-hour urine collection. Urinary concentrations of cortisol and 6β-hydroxycortisol and plasma concentrations of cortisol were determined by HPLC and GC-MS, respectively. “The endogenous metabolic clearance (CLm(6β)-endo)” was calculated by Equation 4.
c) The fractional metabolic clearance for the 6β-hydroxylation of endogenous cortisol (CLm(6β)) is expressed as the amount of urinary excreted 6β-hydroxycortisol (X(6β)) divided by the area under the concentration-time curve of cortisol (AUC(F)); that is, CLm(6β)=X(6β)/AUC(F).

- variation of CLm(6β)-endo values during treatment [2]: 1.2 fold
SMILES: CC[C@H]1OC(=O)[C@H](C)[C@@H](O[C@H]2C[C@@](C)(OC)[C@@H](O)[C@H](C)O2)[C@H](C)[C@@H](O[C@@H]2O[C@H](C)C[C@H](N(C)C)[C@H]2O)[C@](C)(OC)C[C@@H](C)C(=O)[C@H](C)[C@@H](O)[C@]1(C)O [clarithromycin]
- midazolam sleep time [1]: doubling
- reduction in the systemic clearance of midazolam [1]: 64%
